Experiments:
[1] = cited from earlier work; for mode of elimination / renal secretion (in words): in vivo
[2] = Liver accumulation in a human being after 40 minutes; assay type: in vivo; details: 0.5 mCi intravenously
Description: The liver accumulation is determined after 40 minutes. For the tested Tc99m-LL-isomer it amounts to 2.9%, for Tc99m-MAG3 it amounts to 4.0% of the injected dose.

Row | Molecule | mode of elimination / renal secretion (in words) [1] | clearance ([1]; chelate of DTPA) | liver accumulation [2]
1 | O=C(O)CNC(=O)c1ccccc1[131I] [iodo-131-Hippuran] | secreted actively tubularly | – | –
2 | Tc99m-diethylene triamine pentaacetic acid [DTPA] | eliminated entirely or substantially entirely by glomerular filtration | 100 ml of blood plasma per minute | –
3 | Tc-99m-mercaptoacetyltriglycine [Tc99m-MAG3] | secreted by the kidneys selectively and approximately equally rapidly as iodo-Hippuran | – | 4.0 % of the injected dose

Source: patent publication US4925650A, “Technetium -99m complex for examining the renal function” (Mallinckrodt, Inc., priority 1988, dated 1990)
